Counter-ions that a name gives are not always drawn.
tested on: LPS-induced TNF-α release in peripheral blood mononuclear cells (PBMCs); assay: In vitro determination of PDE4 inhibitory activity in the PBMCs assay (LPS-induced TNF-α release); assay type: cell-based, human; settings: PBMC; human PBMCs, LPS 3 ng/ml, 18 hours, TNF-α by ELISA; read-out: PDE4 inhibition (IC50, 50% inhibition of LPS-induced TNF-α release)
Description: The assay, which is based on the known inhibitory activity exerted by PDE4 inhibitors on the lipopolyshaccarides (LPS)-induced tumour necrosis factor-alpha (TNF-α release in peripheral blood mononuclear cells (PBMCs), was performed according to a method previously described (Hatzelmann A et al., J. Pharmacol. Exp. Ther., 2001; 297:267-279; and Draheim R et al., J. Pharmacol. Exp. Ther., 2004; 308:555-563, which are incorporated herein by reference in their entireties). Cryopreserved human PBMCs, (100 l/well) were incubated in 96-well plates (10^5 cells/well), for 30 minutes, in the presence or absence (50 microl) of the test compounds whose concentrations ranged from 10^−12 M to 10^−6 M or from […] to 10^−7 M. Subsequently, LPS (3 ng/ml) was added.
After 18 hours of incubation at 37° C. in a humidified incubator under an atmosphere of 95% air and 5% CO2, culture medium was collected and TNF-α measured by ELISA. The results of the tested compounds, representatives of the invention, expressed as mean±95% confidence limits of the molar concentration of the test compound producing 50% inhibition of LPS-induced TNF-α release (IC50) are shown in the following Table: […]

SMILES | IC50
O=C(O[C@@H](Cc1c(Cl)c[n+]([O-])cc1Cl)c1ccc(OC(F)F)c(OCC2CC2)c1)[C@@H]1SCCN1C(=O)c1ccc(CN2CCS(=O)(=O)CC2)cc1 [Compound 40, 3,5-dichloro-4-((S)-2-(3-(cyclopropylmethoxy)-4-(difluoromethoxy)phenyl)-2-((S)-3-(4-(1,1-dioxothiomorpholinomethyl)benzoyl)thiazolidine-2-carbonyloxy)ethyl)pyridine 1-oxide] | 0.1 to 1 nM
O=C(O[C@@H](Cc1c(Cl)c[n+]([O-])cc1Cl)c1ccc(OC(F)F)c(OCC2CC2)c1)[C@@H]1SCCN1C(=O)c1cccc(-c2cnco2)c1 [Compound 41, 3,5-dichloro-4-((S)-2-(3-(cyclopropylmethoxy)-4-(difluoromethoxy)phenyl)-2-((S)-3-(3-(oxazol-5-yl)benzoyl)thiazolidine-2-carbonyloxy)ethyl)pyridine 1-oxide] | 0.1 to 1 nM
CS(=O)(=O)N(CCN1CCOCC1)c1cc(OCC2CC2)cc(C(=O)N2CCSC2C(=O)O[C@@H](Cc2c(Cl)c[n+]([O-])cc2Cl)c2ccc(OC(F)F)c(OCC3CC3)c2)c1 (stereo partly drawn) [Compound 49, 3,5-dichloro-4-((2S)-2-(3-(cyclopropylmethoxy)-4-(difluoromethoxy)phenyl)-2-(3-(3-(cyclopropylmethoxy)-5-(N-(2-morpholinoethyl)methylsulfonamido)benzoyl)thiazolidine-2-carbonyloxy)ethyl)pyridine 1-oxide formate] | 0.1 to 1 nM
CN(C)Cc1ccc(C(=O)N2CCSC2C(=O)O[C@@H](Cc2c(Cl)c[n+]([O-])cc2Cl)c2ccc(OC(F)F)c(OCC3CC3)c2)s1 (stereo partly drawn) [Compound 51, 3,5-dichloro-4-((2S)-2-(3-(cyclopropylmethoxy)-4-(difluoromethoxy)phenyl)-2-(3-(5-((dimethylamino)methyl)thiophene-2-carbonyl)thiazolidine-2-carbonyloxy)ethyl)pyridine 1-oxide formate] | 0.1 to 1 nM
CN(C)C(=O)c1cccc(S(=O)(=O)N2CCS[C@H]2C(=O)O[C@@H](Cc2c(Cl)c[n+]([O-])cc2Cl)c2ccc(OC(F)F)c(OCC3CC3)c2)c1 [Compound 52, 3,5-dichloro-4-((S)-2-(3-(cyclopropylmethoxy)-4-(difluoromethoxy)phenyl)-2-((S)-3-(3-(dimethylcarbamoyl)phenylsulfonyl)thiazolidine-2-carbonyloxy)ethyl)pyridine 1-oxide] | < 0.1 nM
COc1ccc(S(=O)(=O)N2CCC[C@H]2C(=O)O[C@@H](Cc2c(Cl)c[n+]([O-])cc2Cl)c2ccc(OC(F)F)c(OCC3CC3)c2)cc1OC [Compound 53, 3,5-dichloro-4-((S)-2-(3-(cyclopropylmethoxy)-4-(difluoromethoxy)phenyl)-2-((S)-1-(3,4-dimethoxyphenylsulfonyl)pyrrolidine-2-carbonyloxy)ethyl)pyridine 1-oxide] | 0.1 to 1 nM
CN(C)C(=O)c1cccc(S(=O)(=O)N2CCC[C@H]2C(=O)O[C@@H](Cc2c(Cl)c[n+]([O-])cc2Cl)c2ccc(OC(F)F)c(OCC3CC3)c2)c1 [Compound 54, 3,5-dichloro-4-((S)-2-(3-(cyclopropylmethoxy)-4-(difluoromethoxy)phenyl)-2-((S)-1-(3-(dimethylcarbamoyl)phenylsulfonyl)pyrrolidine-2-carbonyloxy)ethyl)pyridine 1-oxide] | < 0.1 nM
CN(C)C(=O)c1cccc(S(=O)(=O)N2CCC[C@@H]2C(=O)O[C@@H](Cc2c(Cl)c[n+]([O-])cc2Cl)c2ccc(OC(F)F)c(OCC3CC3)c2)c1 [Compound 55, 3,5-dichloro-4-((S)-2-(3-(cyclopropylmethoxy)-4-(difluoromethoxy)phenyl)-2-((R)-1-(3-(dimethylcarbamoyl)phenylsulfonyl)pyrrolidine-2-carbonyloxy)ethyl)pyridine 1-oxide] | 0.1 to 1 nM
CN(C)C(=O)c1cccc(S(=O)(=O)N2CCSC2C(=O)O[C@@H](Cc2c(Cl)c[n+]([O-])cc2Cl)c2ccc(OC(F)F)c(OCC3CC3)c2)c1 (stereo partly drawn) [Compound 56, 3,5-dichloro-4-((2S)-2-(3-(cyclopropylmethoxy)-4-(difluoromethoxy)phenyl)-2-(3-(3-(dimethylcarbamoyl)phenylsulfonyl)thiazolidine-2-carbonyloxy)ethyl)pyridine 1-oxide] | < 0.1 nM
O=C(O[C@@H](Cc1c(Cl)c[n+]([O-])cc1Cl)c1ccc(OC(F)F)c(OCC2CC2)c1)C1SCCN1S(=O)(=O)c1ccccc1 (stereo partly drawn) [Compound 57, 3,5-dichloro-4-((2S)-2-(3-(cyclopropylmethoxy)-4-(difluoromethoxy)phenyl)-2-(3-(phenylsulfonyl)thiazolidine-2-carbonyloxy)ethyl)pyridine 1-oxide] | 0.1 to 1 nM
O=C1NC(=O)c2cc(S(=O)(=O)N3CCSC3C(=O)O[C@@H](Cc3c(Cl)c[n+]([O-])cc3Cl)c3ccc(OC(F)F)c(OCC4CC4)c3)ccc21 (stereo partly drawn) [Compound 58, 3,5-dichloro-4-((2S)-2-(3-(cyclopropylmethoxy)-4-(difluoromethoxy)phenyl)-2-(3-(1,3-dioxoisoindolin-5-ylsulfonyl)thiazolidine-2-carbonyloxy)ethyl)pyridine 1-oxide] | 0.1 to 1 nM
NS(=O)(=O)c1cccc(S(=O)(=O)N2CCSC2C(=O)O[C@@H](Cc2c(Cl)c[n+]([O-])cc2Cl)c2ccc(OC(F)F)c(OCC3CC3)c2)c1 (stereo partly drawn) [Compound 59, 3,5-dichloro-4-((2S)-2-(3-(cyclopropylmethoxy)-4-(difluoromethoxy)phenyl)-2-(3-(3-sulfamoylphenylsulfonyl)thiazolidine-2-carbonyloxy)ethyl)pyridine 1-oxide] | < 0.1 nM
O=C(O[C@@H](Cc1c(Cl)c[n+]([O-])cc1Cl)c1ccc(OC(F)F)c(OCC2CC2)c1)C1SCCN1S(=O)(=O)c1cccc(F)c1 (stereo partly drawn) [Compound 60, 3,5-dichloro-4-((2S)-2-(3-(cyclopropylmethoxy)-4-(difluoromethoxy)phenyl)-2-(3-(3-fluorophenylsulfonyl)thiazolidine-2-carbonyloxy)ethyl)pyridine 1-oxide] | 0.1 to 1 nM
Cc1ccc(S(=O)(=O)N2CCSC2C(=O)O[C@@H](Cc2c(Cl)c[n+]([O-])cc2Cl)c2ccc(OC(F)F)c(OCC3CC3)c2)c(C)c1 (stereo partly drawn) [Compound 61, 3,5-dichloro-4-((2S)-2-(3-(cyclopropylmethoxy)-4-(difluoromethoxy)phenyl)-2-(3-(2,4-dimethylphenylsulfonyl)thiazolidine-2-carbonyloxy)ethyl)pyridine 1-oxide] | 0.1 to 1 nM
O=C(O[C@@H](Cc1c(Cl)c[n+]([O-])cc1Cl)c1ccc(OC(F)F)c(OCC2CC2)c1)C1SCCN1S(=O)(=O)c1cccs1 (stereo partly drawn) [Compound 62, 3,5-dichloro-4-((2S)-2-(3-(cyclopropylmethoxy)-4-(difluoromethoxy)phenyl)-2-(3-(thiophen-2-ylsulfonyl)thiazolidine-2-carbonyloxy)ethyl)pyridine 1-oxide] | 0.1 to 1 nM
O=C(O[C@@H](Cc1c(Cl)c[n+]([O-])cc1Cl)c1ccc(OC(F)F)c(OCC2CC2)c1)C1SCCN1S(=O)(=O)c1cccc(Cl)c1 (stereo partly drawn) [Compound 63, 3,5-dichloro-4-((2S)-2-(3-(3-chlorophenylsulfonyl)thiazolidine-2-carbonyloxy)-2-(3-(cyclopropylmethoxy)-4-(difluoromethoxy)phenyl)ethyl)pyridine 1-oxide] | 0.1 to 1 nM

Source: patent publication US9931327B2, “Derivatives of 1-phenyl-2-pyridinyl alkyl alcohols as phosphodiesterase inhibitors” (Chiesi Farmaceutici S.p.A., priority 2011, dated 2018)
